In the test the test system is BDF1 mice, P388 leukemia ip, median survival T/C. The test is described as follows: NCI In Vivo Anticancer Drug Screen. Data for tumor model P388 Leukemia (intraperitoneal) in B6D2F1 (BDF1) mice. To be noted: endpoint: median survival time, higher = longer survival. In a few lines:
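Reported as T/C, where T is the survival measurement in dosed animals and C the same measurement in vehicle controls.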

Where [1] appears, read: dose: 100.0 mg/kg/injection, schedule: Q04DX003 (ip), vehicle: saline with Tween-80.
Where [2] appears, read: dose: 6.25 mg/kg/injection, schedule: Q01DX009 (ip), vehicle: saline with Tween-80.
The mark [3] stands for this setting: dose: 12.5 mg/kg/injection, schedule: Q01DX009 (ip), vehicle: saline with Tween-80.
Where [4] appears, read: dose: 25.0 mg/kg/injection, schedule: Q01DX009 (ip), vehicle: saline with Tween-80.
The mark [5] stands for this setting: dose: 200.0 mg/kg/injection, schedule: Q04DX003 (ip), vehicle: saline with Tween-80.
The mark [6] stands for this setting: dose: 400.0 mg/kg/injection, schedule: Q04DX003 (ip), vehicle: saline with Tween-80.
Setting [7] is: dose: 50.0 mg/kg/injection, schedule: Q04DX003 (ip), vehicle: Klucel (hydroxypropylcellulose) (HPC).
Where [8] appears, read: dose: 100.0 mg/kg/injection, schedule: Q04DX003 (ip), vehicle: Klucel (hydroxypropylcellulose) (HPC).
The mark [9] stands for this setting: dose: 100.0 mg/kg/injection, schedule: Q04DX003 (ip), vehicle: saline.
Setting [10] is: dose: 200.0 mg/kg/injection, schedule: Q04DX003 (ip), vehicle: saline.
[11] abbreviates: dose: 400.0 mg/kg/injection, schedule: Q04DX003 (ip), vehicle: saline.
Where [12] appears, read: dose: 50.0 mg/kg/injection, schedule: Q01DX009 (ip), vehicle: saline with Tween-80.
Where [13] appears, read: dose: 100.0 mg/kg/injection, schedule: Q01DX009 (ip), vehicle: saline with Tween-80.
The mark [14] stands for this setting: dose: 200.0 mg/kg/injection, schedule: Q01DX009 (ip), vehicle: saline with Tween-80.
Where [15] appears, read: dose: 3.13 mg/kg/injection, schedule: Q01DX009 (ip), vehicle: saline with Tween-80.

Toxic doses and inconclusive results are not listed.

As for `C[n+]1ccc(NC(=O)c2ccc(NC(=O)c3cccc(C(=O)Nc4ccc(C(=O)Nc5cc[n+](C)cc5)cc4)c3)cc2)cc1`, the T/C (dose: 66.0 mg/kg/injection, schedule: Q04DX003 (ip), vehicle: saline with Tween-80) was 160 % of control and the T/C under setting [1] was 239 % of control.
Regarding `COP(=O)(OC)OC=C(Cl)Cl`, the T/C reads like this: under setting [2], 100 % of control; under setting [3], 103 % of control; under setting [4], 102 % of control.
For the compound `COP(=O)(OC)C(OC(=O)C(C)(C)SC(C)=S)=C(C)C`, the T/C was 110 % of control under setting [1], 115 % of control under setting [5] and 115 % of control under setting [6].
For `Cc1cc(C)c(CN)cc1C`, the T/C (dose: 5.0 mg/kg/injection, schedule: Q04DX003 (ip), vehicle: saline with Tween-80) is 100 % of control; the T/C (dose: 10.0 mg/kg/injection, schedule: Q04DX003 (ip), vehicle: saline with Tween-80) was 100 % of control; the T/C (dose: 20.0 mg/kg/injection, schedule: Q04DX003 (ip), vehicle: saline with Tween-80) was 100 % of control.
As to `O=C(/C=N\O)c1ccncc1`, the T/C is 100 % of control under setting [7] and 100 % of control under setting [8].
For `Cc1cccc(-c2nc3cc(Cl)ccc3c(=O)o2)c1`, the T/C runs as follows: (dose: 50.0 mg/kg/injection, schedule: Q01DX009 (ip), vehicle: Klucel (hydroxypropylcellulose) (HPC)) 104 % of control; under setting [7], 95 % of control; (dose: 100.0 mg/kg/injection, schedule: Q01DX009 (ip), vehicle: Klucel (hydroxypropylcellulose) (HPC)) 109 % of control; under setting [8], 100 % of control; (dose: 200.0 mg/kg/injection, schedule: Q04DX003 (ip), vehicle: Klucel (hydroxypropylcellulose) (HPC)) 95 % of control.
Take `CN1CCCc2cccc(NC(=O)C3CCCNC3=O)c21` (stereo unspecified): the T/C is, setting by setting: under setting [1], 101 % of control; under setting [5], 100 % of control; under setting [6], 116 % of control.
On to `O=S(=O)(O)c1cccc2cccc(Cl)c12`, for which the T/C runs as follows: under setting [9], 100 % of control; under setting [10], 95 % of control; under setting [11], 100 % of control.
For `CN(C)C(=S)/N=c1\ss/c(=N\C(=S)N(C)C)n1-c1ccccc1`, the T/C by setting is: under setting [12], 100 % of control; under setting [13], 95 % of control; under setting [14], 95 % of control.
With `CS/C(=C\c1ccc2cc(C)ccc2[n+]1C)N1CCOCC1`, the T/C was 112 % of control (dose: 1.56 mg/kg/injection, schedule: Q01DX009 (ip), vehicle: saline) and 119 % of control (dose: 3.12 mg/kg/injection, schedule: Q01DX009 (ip), vehicle: saline).
For the compound `COC(=O)CSc1ncc2cnccn12`, the T/C is, setting by setting: (dose: 100.0 mg/kg/injection, schedule: Q04DX003 (ip), vehicle: water) 109 % of control; (dose: 200.0 mg/kg/injection, schedule: Q04DX003 (ip), vehicle: water) 100 % of control; (dose: 400.0 mg/kg/injection, schedule: Q04DX003 (ip), vehicle: water) 109 % of control.
As to `[N-]=[N+]=Nc1ccc(Cl)cc1C(=O)c1ccccc1`, the T/C reads like this: (dose: 25.0 mg/kg/injection, schedule: Q04DX003 (ip), vehicle: saline) 104 % of control; (dose: 50.0 mg/kg/injection, schedule: Q04DX003 (ip), vehicle: saline) 90 % of control; under setting [9], 109 % of control.
On to `C=C(C)C(=O)OC1CC2=CC(CC3(C)OC3C3OC(=O)C(=C)C13)OC2=O` (stereo unspecified), for which the T/C runs as follows: (dose: 4.5 mg/kg/injection, schedule: Q01DX009 (ip), vehicle: Klucel (hydroxypropylcellulose) (HPC)) 101 % of control; (dose: 18.0 mg/kg/injection, schedule: Q01DX009 (ip), vehicle: Klucel (hydroxypropylcellulose) (HPC)) 106 % of control; (dose: 36.0 mg/kg/injection, schedule: Q01DX009 (ip), vehicle: Klucel (hydroxypropylcellulose) (HPC)) 117 % of control.
As for `OCCN(CCO)c1cc(/C=C/c2ccnc3ccccc23)nc2ccccc12`, the T/C runs as follows: under setting [12], 89 % of control; under setting [13], 89 % of control; under setting [14], 91 % of control.
In the case of `CSCSCC(CO)NS(=O)(=O)c1ccc(C)cc1` (stereo unspecified), the T/C by setting is: under setting [1], 100 % of control; under setting [5], 100 % of control; under setting [6], 100 % of control.
For the compound `CC1(O)c2cccc(Sc3ccccc3)c2C(C)(O)c2c(Sc3ccccc3)cccc21` (stereo unspecified), the T/C is, setting by setting: under setting [12], 107 % of control; under setting [13], 99 % of control; under setting [14], 98 % of control.
Consider `CC(C)CNC(=S)N/N=C\C=N/NC(=S)NCC(C)C`, for which the T/C reads like this: (dose: 75.0 mg/kg/injection, schedule: Q01DX009 (ip), vehicle: saline with Tween-80) 98 % of control; (dose: 150.0 mg/kg/injection, schedule: Q01DX009 (ip), vehicle: saline with Tween-80) 91 % of control.
As for `CS(=O)(=O)Nc1cc(Cl)c(NS(C)(=O)=O)c(Cl)c1Cl`, the T/C is 100 % of control (dose: 100.0 mg/kg/injection, schedule: Q01DX001 (ip), vehicle: saline with Tween-80); 103 % of control (dose: 200.0 mg/kg/injection, schedule: Q01DX001 (ip), vehicle: saline with Tween-80); 100 % of control (dose: 400.0 mg/kg/injection, schedule: Q01DX001 (ip), vehicle: saline with Tween-80).
As for `CCCCCCCSCCSCCSCCCCCCC`, the T/C runs as follows: (dose: 100.0 mg/kg/injection, schedule: Q01DX001 (ip), vehicle: Klucel (hydroxypropylcellulose) (HPC)) 100 % of control; (dose: 200.0 mg/kg/injection, schedule: Q01DX001 (ip), vehicle: Klucel (hydroxypropylcellulose) (HPC)) 100 % of control; (dose: 400.0 mg/kg/injection, schedule: Q01DX001 (ip), vehicle: Klucel (hydroxypropylcellulose) (HPC)) 100 % of control.
In the case of `Oc1c(Cl)c(Cl)c(Cl)c2cccnc12`, the T/C runs as follows: under setting [15], 103 % of control; under setting [2], 106 % of control; under setting [3], 104 % of control.
As for `C=CCOCCO`, the T/C reads like this: (dose: 100.0 mg/kg/injection, schedule: Q01DX009 (ip), vehicle: saline) 112 % of control; under setting [9], 91 % of control; (dose: 200.0 mg/kg/injection, schedule: Q01DX009 (ip), vehicle: saline) 112 % of control; under setting [10], 95 % of control; (dose: 400.0 mg/kg/injection, schedule: Q01DX009 (ip), vehicle: saline) 100 % of control; under setting [11], 108 % of control.
For the compound `Cc1ccc(NC(=O)N(CCCl)N=O)cc1NC(=O)N(CCCl)N=O`, the T/C was 179 % of control (dose: 1.25 mg/kg/injection, schedule: Q04DX003 (ip), vehicle: other); 175 % of control (dose: 2.5 mg/kg/injection, schedule: Q04DX003 (ip), vehicle: other); 204 % of control (dose: 3.12 mg/kg/injection, schedule: Q01DX009 (ip), vehicle: other); 185 % of control under setting [15]; 200 % of control (dose: 5.0 mg/kg/injection, schedule: Q04DX003 (ip), vehicle: other); 207 % of control (dose: 6.25 mg/kg/injection, schedule: Q01DX009 (ip), vehicle: other). Further, the T/C under setting [2] is 221 % of control; the T/C (dose: 6.25 mg/kg/injection, schedule: Q04DX003 (ip), vehicle: other) was 166 % of control; the T/C under setting [3] is 221 % of control; the T/C under setting [4] is 113 % of control; the T/C (dose: 25.0 mg/kg/injection, schedule: Q04DX003 (ip), vehicle: other) is 177 % of control.
For `CS(=O)(=O)CC(O)(c1ccccc1)c1cccnc1` (stereo unspecified), the T/C reads like this: under setting [12], 98 % of control; under setting [13], 104 % of control; under setting [14], 98 % of control.
For `COc1cc2c(c(OC)c1OC)-c1ccc(O)cc1[C@@H](NC(C)=O)CC2`, the T/C was 86 % of control (dose: 2.5 mg/kg/injection, schedule: Q01DX010 (ip), vehicle: water); 118 % of control (dose: 5.0 mg/kg/injection, schedule: Q01DX010 (ip), vehicle: water); 109 % of control (dose: 10.0 mg/kg/injection, schedule: Q01DX010 (ip), vehicle: water).

The record behind these values is PubChem BioAssay AID328 (DTP/NCI, 2004).
